# Assay results: patent US4782057A, “Benzo[h]cinnoline compound, a method of preparing said compound and a pharmaceutical composition” (Yoshitomi Pharmaceutical Industries, Ltd., priority 1984, dated 1988)
# pKi: −log10 of the molar value.
# System: mice
# Experiment: Acute toxicity in mice
# Format: in vivo
# Conditions: intraperitoneal dose of 250 mg/kg
# Excerpt: The compound of Example 13 was orally or intraperitoneally administered to mice.
row,Compound,"survival, acute toxicity"
1,"COc1ccc(N2N=C3c4cc(C)ccc4CCC3CC2=O)cc1 (stereo not shown) [Example 13, 2-(4-Methoxyphenyl)-9-methyl-4,4a,5,6-tetrahydrobenzo[h]cinnolin-3(2H)-one]",All mice survived

# Same assay, conditions: oral dose of 1000 mg/kg
row,Compound,"survival, acute toxicity"
1,"COc1ccc(N2N=C3c4cc(C)ccc4CCC3CC2=O)cc1 (stereo not shown) [Example 13, 2-(4-Methoxyphenyl)-9-methyl-4,4a,5,6-tetrahydrobenzo[h]cinnolin-3(2H)-one]",All mice survived

# Biological target: benzodiazepine receptor
# Experiment: Displacement of tritiated diazepam from benzodiazepine receptor (crude synaptosomal membranes of rat cerebral cortex)
# Format: binding, male Wistar rats
# Conditions: tritiated diazepam 2 nM, 4° C., 20 minutes, Tris-HCl pH 7.4
# Protocol: A displacement ability for benzodiazepine receptor is shown as follows:
# A specific binding for benzodiazepine receptor was determined according to the methods described in European Journal of Pharmacology, vol. 51, p. 129 (1978) and Life Science, vol. 20, p. 1201 (1977).
# In brief, the crude synaptosomal membranes were prepared from the cerebral cortex of 9 to 10 week-old male Wistar rats and were suspended in Tris-HCl buffer (pH 7.4). Various concentrations of test compounds and tritiated diazepam (final concentration: 2 nM) were incubated at 4° C. for 20 minutes. Then the suspension was filtered through Whatman GF/B glass fiber filters. Radioactivity of tritiated diazepam on the filters was measured by liquid scintillation spectrometry. Specific binding was defined as the difference in the amount of radioactivity bound in the absence and presence of 1.0×10^-6 M unlabeled diazepam.
# According to the above experimental method, the affinity of the compounds of the present invention is evaluated as an ability to displace tritiated diazepam from the binding site, and is represented as Ki value.
row,Compound,pKi
1,"O=c1cc2c(nn1-c1ccccc1)-c1ccccc1CC2 [Example 3, 2-phenyl-5,6-dihydrobenzo[h]cinnolin-3(2H)-one]",6.89
2,"O=c1cc2c(nn1-c1ccccc1)-c1cc(Cl)ccc1CC2 [Example 2, 9-chloro-2-phenyl-5,6-dihydrobenzo[h]cinnolin-3(2H)-one]",6.72
3,"O=C1CC2CCc3ccc(Cl)cc3C2=NN1c1ccccc1 (stereo not shown) [Example 1, 9-chloro-2-phenyl-4,4a,5,6-tetrahydrobenzo[h]cinnolin-3(2H)-one]",6.92
4,"O=c1cc2c(nn1-c1ccc([N+](=O)[O-])cc1)-c1cc(Cl)ccc1CC2 [Example 18, 9-Chloro-2-(4-nitrophenyl)-5,6-dihydrobenzo[h]cinnolin-3(2H)-one]",7.05
5,"COc1ccc(N2N=C3c4cc(C)ccc4CCC3CC2=O)cc1 (stereo not shown) [Example 13, 2-(4-Methoxyphenyl)-9-methyl-4,4a,5,6-tetrahydrobenzo[h]cinnolin-3(2H)-one]",8.18
6,"O=c1cc2c(nn1-c1ccccc1)-c1cc(F)ccc1CC2 [Example 30, 9-Fluoro-2-phenyl-5,6-dihydrobenzo[h]cinnolin-3(2H)-one]",6.66

# Results, then the compound that gave them:
row,pKi,Compound
1,7.47,"O=C1CC2CCc3ccc(F)cc3C2=NN1c1ccc(Cl)cc1 (stereo not shown) [Example 20, 2-(4-Chlorophenyl)-9-fluoro-4,4a,5,6-tetrahydrobenzo[h]cinnolin-3(2H)-one]"
2,7.33,"O=c1cc2c(nn1-c1ccc(Cl)cc1)-c1cc(Cl)ccc1CC2 [Example 17, 9-Chloro-2-(4-chlorophenyl)-5,6-dihydrobenzo[h]cinnolin-3(2H)-one]"
3,7.35,"O=c1cc2c(nn1-c1ccc(Cl)cc1)-c1cc(F)ccc1CC2 [Example 19, 2-(4-Chlorophenyl)-9-fluoro-5,6-dihydrobenzo[h]cinnolin-3(2H)-one]"
4,8.09,"COc1ccc2c(c1)C1=NN(c3ccc(C)cc3)C(=O)CC1CC2 (stereo not shown) [Example 14, 9-Methoxy-2-(4-methylphenyl)-4,4a,5,6-tetrahydrobenzo[h]cinnolin-3(2H)-one]"
5,7.55,"Cc1ccc(-n2nc3c(cc2=O)CCc2ccc(Cl)cc2-3)cc1 [Example 15, 9-Chloro-2-(4-methylphenyl)-5,6-dihydrobenzo[h]cinnolin-3(2H)-one]"
6,7.80,"Cc1ccc(N2N=C3c4cc(C)ccc4CCC3CC2=O)cc1 (stereo not shown) [Example 11, 9-Methyl-2-(4-methylphenyl)-4,4a,5,6-tetrahydrobenzo[h]cinnolin-3(2H)-one]"
7,7.59,"Cc1ccc2c(c1)C1=NN(c3ccc(Cl)cc3)C(=O)CC1CC2 (stereo not shown) [Example 12, 2-(4-Chlorophenyl)-9-methyl-4,4a,5,6-tetrahydrobenzo[h]cinnolin-3(2H)-one]"
8,7.85,"Cc1ccc(N2N=C3c4cc(Cl)ccc4CCC3CC2=O)cc1 (stereo not shown) [Example 16, 9-Chloro-2-(4-methylphenyl)-4,4a,5,6-tetrahydrobenzo[h]cinnolin-3(2H)-one]"
